Measurements published in US4714699A, “2-tolylmorpholine derivatives and pharmaceutical compositions” (Societe Anonyme Dite: Laboratoire L. Lafon, priority 1983, dated 1987).
Entries after “also recorded” stand apart in the source; their conditions may differ.

How the values were obtained:
[1] = asphyxiant anoxia (gallamine triiodoethylate); format: in vivo, male mice; conditions: i.p., mice
Method: (§1) In the following tests, CRL 40 875, in solution in distilled water, was administered intraperitoneally in a volume of 20 ml/kg to male mice and 5 ml/kg to male rats.
Groups of 20 mice receive CRL 40 875 half an hour before the intraperitoneal administration of 32 mg/kg of gallamine triidoethylate (which is a reference curarizing agent).
(§2) In the following tests, CRL 40 897, in solution in distilled water (pH 4), was administered intraperitoneally in a volume of 20 ml/kg to male mice and in a volume of 5 ml/kg to male rats, the procedures being those given above for CRL 40 875.
(§3) In the tests undertaken, CRL 40 912, in solution in distilled water (pH 4.5), was administered intraperitoneally in a volume of 20 ml/kg to male mice and in a volume of 5 ml/kg to male rats, the procedures being those given above for CRL 40 875.

electric shock = format: in vivo, male mice; conditions: i.p., mice
Method: as §1
(§4) The test is performed on groups of 10 mice half an hour after the administration of CRL 40 875.
as §2

[2] = motility reduced by hypoxic aggression; format: in vivo, male mice; conditions: i.p.
Method: as §1
Half an hour after they have received CRL 40 875, the mice (10 per dose, 20 control animals) are subjected to acute hypobaric anoxia [pressure reduction of 600 mm Hg (i.e. about 8×10^4 pascals) in 90 seconds; release of vacuum in 45 seconds] and are then placed in an actimeter, where their motility is recorded for 10 minutes.
as §2

α-adrenergic = α-adrenergic stimulation; conditions: in vivo
[3] = interaction with apomorphine in mice; format: in vivo, male mice; conditions: mice
Method: as §1
Groups of 6 mice receive CRL 40 875 0.5 hour before the subcutaneous injection of 1 or 16 mg/kg of apomorphine.
as §2, §3

[4] = overall behavior and reactivities in mice; format: in vivo, male mice; conditions: mice
Method: as §1
Groups of three mice are observed before and then 15 minutes, 30 minutes, 1 hour, 2 hours, 3 hours and 24 hours after the administration of CRL 40 875.
as §2
(§5) The toxicological and neuropsychopharmacological studies undertaken in accordance with the procedures described above for CRL 40 875 enabled the following observations to be made: […]

[5] = pretoxicity (LD-O, maximum non-lethal dose); format: in vivo, male mice
Method: as §1, §2, §3, §5

[6] = action on the spontaneous motility; format: in vivo, male mice; conditions: mice
Method: as §1
Half an hour after they have received CRL 40 875, the mice (6 per dose, 12 control animals) are placed in an actimeter, where their motility is recorded for 30 minutes.
as §2

[7] = interaction with oxotremorine; format: in vivo, male mice; conditions: mice
Method: as §1
CRL 40 875 is administered to groups of 6 mice half an hour before the intraperitoneal injection of 0.5 mg/kg of oxotremorine.
as §2, §3

[8] = interaction with amphetamine; format: in vivo, male rats; conditions: i.p.; 2 mg/kg amphetamine; rats
Method: as §1, §2, §3

[9] = motility reduced by habituation to the enclosure; format: in vivo, male mice; conditions: i.p.
Method: as §1
After they have stayed in the actimeters for 18 hours, the mice (6 per dose, 12 control animals) receive CRL 40 875. They are immediately returned to their respective enclosures and, half an hour later, their motility is recorded for 30 minutes.
as §2, §3

four plate test = format: in vivo, male mice; conditions: i.p., mice
Method: as §1, §4, §2

[10] = neuropsychopharmacological study, overall findings; format: in vivo, mice, rats
Method: as §1, §2, §3, §5

[11] = clinical trials, treatment of depressions; format: in vivo; conditions: man
Text: In clinical trials, good results were obtained on man with CRL 40 875 (Example 1), CRL 40 912 (Example 2) and CRL 40 897 (Example 3) in the treatment of depressions.

traction test = format: in vivo, male mice; conditions: i.p., mice
Method: as §1, §4, §2

[12] = interaction with apomorphine in rats; format: in vivo, male rats; conditions: i.p., 0.5 mg/kg apomorphine
Method: as §1
CRL 40 875 is administered to groups of 6 rats 0.5 hour before the subcutaneous injection of 0.5 mg/kg of apomorphine.
as §2, §3

[13] = action on the intergroup aggressiveness; format: in vivo, male mice; conditions: i.p., mice
Method: as §1
After they have stayed for 3 weeks in the two halves of a cage divided by an opaque partition, groups of 3 mice receive CRL 40 875. Half an hour later, the two groups from the same cage are brought together by removal of the partition, and the number of fights which occur in 10 minutes is noted.
as §2, §3

[14] = interaction with reserpine; format: in vivo, male mice; conditions: i.p., mice
Method: as §1
Four hours after the intraperitoneal injection of 2.5 mg/kg of reserpine, groups of 6 mice receive CRL 40 875. The effects on the temperature and ptosis are observed.
as §2, §3

Cc1ccc(C2CN(C)CCO2)cc1.Cl (stereo not drawn) [CRL 40 897, 2-p-tolyl-4-methylmorpholine hydrochloride]
time taken for convulsions and death to occur following asphyxiant anoxia [1]: delays the time taken for convulsions and death to occur | effect on electric shock (electric shock): does not modify the convulsant and lethal effects of electric shock | motor recovery in mice after reduced-pressure enclosure [2]: does not cause any improvement in the motor recovery | α-adrenergic stimulant effect (α-adrenergic): stimulant effects, especially of the α-adrenergic type | minimal effective dose ([3]; Mus musculus, ip, read-out: dose as from which hypothermic effect is present): ≥ 4 mg/kg | effect on the temperature drop induced by apomorphine ([3]; high dose (64 mg/kg) i.p.): partially counteracts the temperature drop induced by apomorphine | effect on righting behavior and stereotypies ([3]; i.p., apomorphine): without modifying the righting behavior and the stereotypies | duration of hypothermia ([4]; 4 mg/kg i.p.): 0.5 h | hypothermia (temperature change) ([4]; 4 mg/kg i.p.): -2.2 °C | duration of hypothermia ([4]; 16 mg/kg i.p.): 0.5 h | hypothermia (temperature change) ([4]; 16 mg/kg i.p.): -2.4 °C | depressed respiration, animals affected ([4]; 64 mg/kg i.p.): 2/3 | duration of depressed respiration ([4]; 64 mg/kg i.p.): 3 h | duration of sedation ([4]; 64 mg/kg i.p.): 3 h | duration of significant salivation ([4]; 64 mg/kg i.p.): 1 h | hypothermia (temperature change) ([4]; 64 mg/kg i.p.): -2.2 °C | sedation, animals affected ([4]; 64 mg/kg i.p.): 3 out of 3 | significant salivation, animals affected ([4]; 64 mg/kg i.p.): 3/3 | signs of toxicity ([5]; 64 mg/kg i.p., mice): dyspnea, sedation | trembling, animals affected ([5]; 64 mg/kg i.p., mice): 1/3 | mortality ([5]; 128 mg/kg i.p., groups of three mice): no mortality | signs of toxicity ([5]; 128 mg/kg i.p., groups of three mice, hydrochloride): dyspnea, trembling; also recorded: sedation | convulsions, animals affected ([5]; 128 mg/kg i.p., mice): 2/3 | convulsions, animals affected ([5]; 256 mg/kg i.p., mice): 2/3 | copious salivation, animals affected ([5]; 256 mg/kg i.p., mice): 1 out of 3 | death, animals affected ([5]; 256 mg/kg i.p., mice): 3/3 | signs of toxicity ([5]; 256 mg/kg i.p., mice): dyspnea | time to death ([5]; 256 mg/kg i.p., mice): 10 min | minimal effective dose ([6]; Mus musculus, ip, read-out: dose as from which motility is reduced): ≥ 4 mg/kg | effect on spontaneous motor activity ([6]; as from 4 mg/kg i.p.): depresses the spontaneous motor activity of mice | minimal effective dose ([7]; Mus musculus, ip, read-out: dose as from which hypothermic effect is distinct): ≥ 4 mg/kg | effect on the temperature drop induced by oxotremorine ([7]; high dose (64 mg/kg) i.p.): partially counteracts the temperature drop induced by oxotremorine | effect on signs of peripheral cholinergic stimulation induced by oxotremorine ([7]; i.p.): leaves unchanged the signs of peripheral cholinergic stimulation induced by oxotremorine | effect on the trembling due to oxotremorine ([7]; i.p.): not influenced | effect on stereotypies induced by amphetamine [8]: The increase observed in the other groups merely reflect this anomaly | resumption in the activity of mice accustomed to their enclosure [9]: does not cause a resumption in the activity of mice accustomed to their enclosure | number of punished passes (four plate test): does not cause an increase in the number of punished passes | variation of sedative effects with dose ([10]; in vivo): increase continuously with the dose administered, up to a maximum value, and then decrease continuously and progressively as the dose increases | antidepressant effects ([10]; strong doses): antidepressants at strong doses | sedative effects ([10]; weak doses where stated): sedative effects (hypomotility, hypothermia, reduction of intergroup aggressiveness | results in the treatment of depressions [11]: good results | major motor incapacity (traction test): does not cause major motor incapacity | effect on stereotypies induced by apomorphine [12]: does not modify the stereotypies induced by apomorphine | effect on aggressiveness / number of fights [13]: does not cause a distinct reduction in the number of fights | effect on the hypothermia and ptosis induced by reserpine [14]: does not modify the hypothermia and ptosis induced by reserpine
